Data on two compounds can be found in ChEMBL document CHEMBL1128242, “Polyiodinated triglyceride analogs as potential computed tomography imaging agents for the liver” (J Med Chem, 1995).

What all share (type): ADME, organism-based
In data set [1] the test system is Rattus norvegicus. Description: Distribution of radioactivity was determined in plasma at 3h after intravenous administration of [125I]-labeled 2-oleoglycerol 1,3-Bis-[omega-(3-amino-2,4,6-triiodophenyl)alkanoates] in rats. Particulars: in vivo.
The subject of data set [2] is Rattus norvegicus. Description: Distribution of radioactivity was determined in kidney at 30 min after intravenous administration of [125I]-labeled 2-oleoglycerol 1,3-Bis-[omega-(3-amino-2,4,6-triiodophenyl)alkanoates] in rats. The conditions noted are these: in vivo, 0.5 h.
Data set [3] relates to Rattus norvegicus. Description: Analysis of lipid-soluble radioactivity in plasma 0.5 hour after iv administration of [125I]-labeled 2-Oleoyl 1,3-disubstituted Triacylglycerols expressed as %parent compound (by TLC with authentic [125I]-labeled standard) from rat. Particulars: in vivo.
In data set [4] the test system is Rattus norvegicus. In words: Distribution of radioactivity was determined in plasma at 24 hr after intravenous administration of [125I]-labeled 2-oleoglycerol 1,3-Bis-[omega-(3-amino-2,4,6-triiodophenyl)alkanoates] in rats. More on the design: unit not given here. The conditions noted are these: in vivo.
In data set [5] the test system is Rattus norvegicus. Description: Distribution of radioactivity was determined in blood at 30 min after intravenous administration of 1,3-Disubstituted Triacylglycerols in rats. The conditions noted are these: in vivo, 0.5 h.
Data set [6] relates to Rattus norvegicus. Description: Polyacrylamide Gel Electrophoresis (PAGE) to determined the concentration of low density lipoprotein (LDL) in rats after iv administration of [125I]-labeled 2-Oleolyl 1,3-disubstituted triglycerols was reported. Particulars: in vivo.
Data set [7] deals with Rattus norvegicus. In words: Distribution of radioactivity was determined in blood at 24 hr after intravenous administration of 1,3-Disubstituted Triacylglycerols in rats. The conditions noted are these: in vivo.
For data set [8], the system named is Rattus norvegicus. In words: Polyacrylamide Gel Electrophoresis (PAGE) to determined the concentration of stacking gel(SG) in rats after iv administration of [125I]-labeled 2-Oleolyl 1,3-disubstituted triglycerols was reported. Particulars: in vivo.
For data set [9], the system named is Rattus norvegicus. Description: Distribution of radioactivity was determined in liver at 3h after intravenous administration of [125I]-labeled 2-oleoglycerol 1,3-Bis-[omega-(3-amino-2,4,6-triiodophenyl)alkanoates] in rats. The conditions noted are these: in vivo.
In data set [10] the test system is Rattus norvegicus. In words: Distribution of radioactivity was determined in spleen at 30 min after intravenous administration of [125I]-labeled 2-oleoglycerol 1,3-Bis-[omega-(3-amino-2,4,6-triiodophenyl)alkanoates] in rats. The conditions noted are these: in vivo, 0.5 h.
Data set [11] has as its system Rattus norvegicus. In words: Distribution of radioactivity was determined in blood at 24 hr after intravenous administration of [125I]-labeled 2-oleoglycerol 1,3-Bis-[omega-(3-amino-2,4,6-triiodophenyl)alkanoates] in rats. The conditions noted are these: in vivo.
Data set [12] deals with Rattus norvegicus. Description: Distribution of radioactivity was determined in blood at 3h after intravenous administration of 1,3-Disubstituted Triacylglycerols in rats. Particulars: in vivo.
Data set [13] deals with Rattus norvegicus. In words: Distribution of radioactivity was determined in spleen at 30 min after intravenous administration of 1,3-Disubstituted Triacylglycerols in rats. The conditions noted are these: in vivo, 0.5 h.

On to `CCCCCCCC/C=C/CCCCCCCC(=O)OC(COC(=O)CCCc1c(I)cc(I)c(N)c1I)COC(=O)CCCc1c(I)cc(I)c(N)c1I`, for which the Distribution of radioactivity was found to be 0.13 % dose/g in the data set with Rattus norvegicus [1]; 0.14 % dose/g in the data set on Rattus norvegicus [2]; 0.24 with Rattus norvegicus [4]; 5.8 % dose/organ with Rattus norvegicus [5]; 1.5 % dose/organ with Rattus norvegicus [7]; 13.8 % dose/g in the data set with Rattus norvegicus [9]. In addition, the Distribution of radioactivity in the data set with Rattus norvegicus [10] was 31.7 % dose/g; in the data set with Rattus norvegicus [11], 0.15 % dose/g; in the data set with Rattus norvegicus [12] it was 0.9 % dose/organ; in the data set on Rattus norvegicus [13], 13.7 % dose/organ. Moreover, the Lipid-soluble radioactivity with Rattus norvegicus [3] is listed as 85.8. Besides, the Radioactivity is listed as 3.2% in the data set on Rattus norvegicus [6] and 80.9% in the data set with Rattus norvegicus [8].

In the case of `CCCCCCCC/C=C/CCCCCCCC(=O)OC(COC(=O)CCc1c(I)cc(I)c(N)c1I)COC(=O)CCc1c(I)cc(I)c(N)c1I`, the Distribution of radioactivity in the data set on Rattus norvegicus [1] was determined as 0.09 % dose/g; in the data set with Rattus norvegicus [2], 0.11 % dose/g; in the data set on Rattus norvegicus [4] it was 0.05; with Rattus norvegicus [5] it was 5.1 % dose/organ; in the data set with Rattus norvegicus [7], 0.4 % dose/organ; with Rattus norvegicus [9], 10.9 % dose/g. For the same compound, the Distribution of radioactivity with Rattus norvegicus [10] was found to be 27.6 % dose/g; in the data set with Rattus norvegicus [11], 0.04 % dose/g; in the data set on Rattus norvegicus [12], 0.7 % dose/organ; in the data set on Rattus norvegicus [13], 13 % dose/organ. Moreover, the Radioactivity is listed as 8.3% in the data set on Rattus norvegicus [6] and 67.3% with Rattus norvegicus [8].
